Data on nine molecules can be found in ChEMBL document CHEMBL1201862, “PubChem BioAssay data set” (2004).

Each structure is given as a SMILES string.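 Five concentrations, 48 hours, 96-well plates. GI50 marks 50% less growth.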 Active and inactive are the calls of the source. Rule as the data show it: active = GI50 up to about 1.1 µM and inactive = higher.

Test in all cases: NCI tumour cell line growth inhibition, 48 h
The test system of assay [1] is PC-3.
In assay [2] the test system is A549.
Assay [3] relates to SR.
Assay [4] relates to A498.
For assay [5], the system named is SNB-75.
Assay [6] has as its system BT-549.
Assay [7] has as its system NCI-H226.
Assay [8] has as its system 786-0.
In assay [9] the test system is EKVX.
Assay [10] has as its system HCT-116.
Assay [11] concerns UACC-62.
Assay [12] concerns K562.
Assay [13] deals with SK-MEL-5.
Assay [14] relates to OVCAR-4.
For assay [15], the system named is Hs-578T.
Assay [16] has as its system Malme-3M.
Assay [17] concerns SK-OV-3.
Assay [18] relates to RXF 393.
Assay [19] has as its system U-251.
Assay [20] relates to HOP-92.

On to `COc1cc(C2c3cc4c(cc3OC(N3CCCCC3)C2C)OCO4)cc(OC)c1O` (stereo not given), for which the GI50 in assay [1] is 7.91 µM (inactive); in assay [2], 10.7 µM (inactive); in assay [3], 4.82 µM (inactive); in [4], 10.9 µM (inactive); in assay [5], 2.96 µM (inactive); in assay [6], 10.5 µM (inactive). Moreover, the GI50 in assay [7] was 21.9 µM (inactive); in assay [8] it was 8.77 µM (inactive); in assay [9], 26.1 µM (inactive); in assay [10], 4.59 µM (inactive); in assay [11], 4.23 µM (inactive); in [12] it was 4.06 µM (inactive). In addition, the GI50 is 5.7 µM (inactive) in assay [13]; 17.3 µM (inactive) in [14]; 7.53 µM (inactive) in assay [15]; 4.36 µM (inactive) in assay [16]; 5.89 µM (inactive) in [17]; 14.5 µM (inactive) in assay [18]. Also, the GI50 was 9.71 µM (inactive) in [19] and 15 µM (inactive) in assay [20].

On to `Nc1nc(Cl)cc(NCC2CC(O)(CO)C2)n1` (stereo not given), for which the GI50 in assay [1] was > 100 µM (inactive); in assay [2], > 100 µM (inactive); in assay [3], > 10 µM (inactive); in [4], > 100 µM (inactive); in assay [5], > 100 µM (inactive); in assay [6], > 100 µM (inactive). The GI50 in assay [7], in [8], in [9], in assay [10], in assay [11] and in [12] was > 100 µM (inactive) throughout. In addition, the GI50 in [13], in assay [14], in [15], in assay [16], in assay [17] and in [18] was > 100 µM (inactive) in each case. Besides, the GI50 in [19] and in assay [20] was > 100 µM (inactive) throughout.

Regarding `NS(=O)(=O)c1ccc(/N=N/c2c(O)c(C(=O)O)cc3ccccc23)cc1`, the GI50 in assay [1] is > 100 µM (inactive); in assay [2], > 100 µM (inactive); in assay [3] it was 33.3 µM (inactive); in [4], > 100 µM (inactive); in assay [5], > 100 µM (inactive); in assay [6], > 100 µM (inactive). For the same molecule, the GI50 in assay [7] is > 100 µM (inactive); in [8], > 100 µM (inactive); in assay [9], > 100 µM (inactive); in [10], > 100 µM (inactive); in assay [11], 37.2 µM (inactive); in assay [12], > 94.4 µM (inactive). Also, the GI50 in [13] is 53.8 µM (inactive); in assay [14], > 100 µM (inactive); in assay [15] it was > 100 µM (inactive); in assay [16], 26.1 µM (inactive); in [17], > 100 µM (inactive); in assay [18], > 100 µM (inactive). The GI50 in assay [19] is 49.3 µM (inactive); in [20] it was > 100 µM (inactive).

In the case of `NC(Cc1ccc2oc3cc(=O)c4ccccc4c-3nc2c1)C(=O)O` (stereo not given), the GI50 in [1] is > 83 µM (inactive); in [2], 16.7 µM (inactive); in assay [3], 16.6 µM (inactive); in assay [4], 70.6 µM (inactive); in [5], 11.2 µM (inactive); in assay [6], 14.4 µM (inactive). For the same molecule, the GI50 in [7] was 27.3 µM (inactive); in assay [8], 50.2 µM (inactive); in assay [9], > 83.4 µM (inactive); in assay [10] it was 36 µM (inactive); in assay [11] it was 11.7 µM (inactive); in assay [12] it was 34.2 µM (inactive). For the same molecule, the GI50 in assay [13] was 4.92 µM (inactive); in [14] it was 67.5 µM (inactive); in assay [15], 11.7 µM (inactive); in assay [16], 6.52 µM (inactive); in assay [17], > 100 µM (inactive); in assay [18], 77.6 µM (inactive). For the same molecule, the GI50 in assay [19] is 26.2 µM (inactive); in [20] it was > 78.7 µM (inactive).

On to `Clc1nncc2sc(-c3ccccc3)nc12`, for which the GI50 in [1] was 17.6 µM (inactive); in assay [2] it was 53.8 µM (inactive); in assay [3], 9.82 µM (inactive); in assay [4] it was 40.6 µM (inactive); in [5] it was 15.9 µM (inactive); in assay [6] it was 13.9 µM (inactive). The GI50 in assay [7] was 26 µM (inactive); in [8], 85.9 µM (inactive); in assay [9], 4.12 µM (inactive); in assay [10] it was 16.9 µM (inactive); in assay [11], 16.4 µM (inactive); in assay [12] it was 7.71 µM (inactive). Also, the GI50 in [13] is 15.6 µM (inactive); in assay [14], 18.4 µM (inactive); in [15], 20.6 µM (inactive); in assay [16], 22.1 µM (inactive); in assay [17], 28.7 µM (inactive); in assay [18], 16.6 µM (inactive). The GI50 was 15 µM (inactive) in assay [19] and 5.06 µM (inactive) in assay [20].

On to `Cc1nc(Cl)c(Cl)c(Cl)n1`, for which the GI50 is 0.348 µM (active) in assay [1]; 1.49 µM (inactive) in assay [2]; < 0.01 µM (active) in [3]; 2.32 µM (inactive) in assay [4]; 1.18 µM (inactive) in assay [5]; 0.199 µM (active) in [6]. The GI50 was 2.59 µM (inactive) in assay [7]; 0.409 µM (active) in assay [8]; 0.357 µM (active) in [9]; 0.118 µM (active) in assay [10]; 0.375 µM (active) in [11]; < 0.0113 µM (active) in assay [12]. The GI50 in assay [13] is 0.705 µM (active); in [14], 0.0331 µM (active); in [15], 0.48 µM (active); in assay [16], 0.202 µM (active); in assay [17], 3.47 µM (inactive); in assay [18] it was 0.495 µM (active). The figures for the GI50 in assay [19] and in assay [20] were 2.04 µM (inactive) and 0.238 µM (active), respectively.

In the case of `COc1cccc(/C=N/n2c(Cc3ccc(Cl)cc3)n[nH]c2=O)c1`, the GI50 in assay [1] was 56.5 µM (inactive); in assay [2], 58.6 µM (inactive); in assay [3] it was > 76.9 µM (inactive); in [4], 59 µM (inactive); in [5] it was 11.7 µM (inactive); in assay [6] it was 26.1 µM (inactive). Moreover, the GI50 in assay [7] was > 28.2 µM (inactive); in assay [8], 25.1 µM (inactive); in assay [9] it was 29.6 µM (inactive); in [10], 47.8 µM (inactive); in [11], 34.2 µM (inactive); in [12], > 100 µM (inactive). Moreover, the GI50 in assay [13] is > 100 µM (inactive); in assay [14] it was > 92.9 µM (inactive); in assay [15], 23.4 µM (inactive); in [16] it was 44.6 µM (inactive); in [17] it was 27.7 µM (inactive); in assay [18], 2 µM (inactive). Further, the GI50 in assay [19] was 22.8 µM (inactive); in assay [20] it was 23.1 µM (inactive).

With `O=C(/C=C/c1ccc(O)cc1)c1ccc(O)cc1` [4,4'-DIHYDROXYCHALCONE], the GI50 is 28.7 µM (inactive) in assay [1]; 30.5 µM (inactive) in assay [2]; 9.71 µM (inactive) in [3]; 31 µM (inactive) in assay [4]; 20.9 µM (inactive) in [5]; 32.6 µM (inactive) in [6]. The GI50 was 16.8 µM (inactive) in assay [7]; 23.2 µM (inactive) in assay [8]; 42.3 µM (inactive) in assay [9]; 16.8 µM (inactive) in [10]; 25.5 µM (inactive) in [11]; 27.2 µM (inactive) in [12]. For the same molecule, the GI50 is 21.5 µM (inactive) in [13]; > 69.8 µM (inactive) in [14]; 27 µM (inactive) in assay [15]; 27.7 µM (inactive) in [16]; 42.6 µM (inactive) in assay [17]; 22.9 µM (inactive) in assay [18]. Moreover, the GI50 in assay [19] is 18 µM (inactive); in [20] it was 31.6 µM (inactive).

For `O=[N+]([O-])O` [NITRIC ACID], the GI50 in [1] is > 100 µM (inactive); in [2], > 100 µM (inactive); in [3], 77.1 µM (inactive); in assay [4], > 100 µM (inactive); in assay [5], > 100 µM (inactive); in [6], > 100 µM (inactive). Further, the GI50 in assay [7], in [8], in assay [9], in assay [10], in assay [11] and in [12] was > 100 µM (inactive) throughout. In addition, the GI50 in assay [13], in [14], in assay [15], in [16], in [17] and in assay [18] was > 100 µM (inactive) in each case. Besides, the GI50 in assay [19] and in [20] was > 100 µM (inactive) throughout.
